One assay addresses T1, native human GLUT5 (Homo sapiens, UniProt P22732).
T1 construct: gene SLC2A5; native full-length transporter in MCF7 breast cancer cells
T1 sequence (P22732 1-501): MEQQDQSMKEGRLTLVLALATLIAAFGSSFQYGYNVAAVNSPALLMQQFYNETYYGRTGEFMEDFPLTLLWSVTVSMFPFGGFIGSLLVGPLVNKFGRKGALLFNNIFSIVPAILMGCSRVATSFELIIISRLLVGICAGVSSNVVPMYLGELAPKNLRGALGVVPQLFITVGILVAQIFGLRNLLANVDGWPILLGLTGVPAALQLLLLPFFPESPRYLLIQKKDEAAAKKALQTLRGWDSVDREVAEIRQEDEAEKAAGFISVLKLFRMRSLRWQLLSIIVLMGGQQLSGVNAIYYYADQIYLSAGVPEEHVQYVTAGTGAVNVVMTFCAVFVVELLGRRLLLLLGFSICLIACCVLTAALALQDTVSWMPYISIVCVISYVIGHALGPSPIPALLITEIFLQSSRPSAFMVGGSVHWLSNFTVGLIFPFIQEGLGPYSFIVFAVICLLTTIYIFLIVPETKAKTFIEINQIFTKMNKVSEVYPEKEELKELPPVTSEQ
As to the kind of experiment: […]-fructose uptake in MCF7 cells, Dixon plot. The format is cell-based. Particulars: competitive with fructose; 50 μM cytochalasin B present to block GLUT2; 3-20 mM fructose; 2 min; 22 °C.

Another assay deals with T2, GlcPSe (Staphylococcus epidermidis, UniProt A0A0H2VG78, F348H).
T2 construct: gene glcP
T2 sequence (A0A0H2VG78 whole entry F348H): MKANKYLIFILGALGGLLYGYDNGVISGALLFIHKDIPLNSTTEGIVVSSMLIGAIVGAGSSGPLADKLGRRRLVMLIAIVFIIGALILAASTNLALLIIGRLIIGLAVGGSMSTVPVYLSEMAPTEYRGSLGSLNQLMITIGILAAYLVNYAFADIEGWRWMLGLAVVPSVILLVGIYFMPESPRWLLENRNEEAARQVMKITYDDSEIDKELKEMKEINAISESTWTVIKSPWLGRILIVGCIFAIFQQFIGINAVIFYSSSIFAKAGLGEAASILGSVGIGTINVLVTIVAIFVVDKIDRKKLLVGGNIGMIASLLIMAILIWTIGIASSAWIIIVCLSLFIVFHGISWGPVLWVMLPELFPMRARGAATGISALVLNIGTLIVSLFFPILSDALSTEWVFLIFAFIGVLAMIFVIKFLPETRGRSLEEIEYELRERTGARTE
Description: biochemical. Particulars: read-out: % inhibition at 2 mM.

The target of assay [1] is T3, GLUT1 (Homo sapiens, UniProt P11166).
T3 construct: gene SLC2A1; full length, N-terminal His6 tag, Sf21 insect cells, purified in DDM, reconstituted in proteoliposomes
T3 sequence (P11166 1-492): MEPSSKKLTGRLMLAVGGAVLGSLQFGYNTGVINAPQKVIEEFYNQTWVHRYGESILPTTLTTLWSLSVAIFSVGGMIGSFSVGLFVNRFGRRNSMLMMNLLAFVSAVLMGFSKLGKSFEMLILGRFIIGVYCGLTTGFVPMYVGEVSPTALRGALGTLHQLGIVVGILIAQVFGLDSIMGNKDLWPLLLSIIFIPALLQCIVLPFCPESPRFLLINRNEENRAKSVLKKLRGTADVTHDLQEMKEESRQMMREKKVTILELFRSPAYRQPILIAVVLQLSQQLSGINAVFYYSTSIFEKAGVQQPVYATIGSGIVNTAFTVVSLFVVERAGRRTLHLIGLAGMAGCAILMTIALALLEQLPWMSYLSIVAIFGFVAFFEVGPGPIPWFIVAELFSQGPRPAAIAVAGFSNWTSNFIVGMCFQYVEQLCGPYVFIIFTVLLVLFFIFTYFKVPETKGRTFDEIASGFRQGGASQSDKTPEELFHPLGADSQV
As to the kind of experiment: […]-glucose entrance counter-flow in proteoliposomes. The format is biochemical.

Assay [2] addresses T4, GLUT2 (Homo sapiens, UniProt P11168).
T4 construct: gene SLC2A2; full length, N-terminal His6 tag, Sf21 insect cells, purified in DDM, reconstituted in proteoliposomes
T4 sequence (P11168 1-524): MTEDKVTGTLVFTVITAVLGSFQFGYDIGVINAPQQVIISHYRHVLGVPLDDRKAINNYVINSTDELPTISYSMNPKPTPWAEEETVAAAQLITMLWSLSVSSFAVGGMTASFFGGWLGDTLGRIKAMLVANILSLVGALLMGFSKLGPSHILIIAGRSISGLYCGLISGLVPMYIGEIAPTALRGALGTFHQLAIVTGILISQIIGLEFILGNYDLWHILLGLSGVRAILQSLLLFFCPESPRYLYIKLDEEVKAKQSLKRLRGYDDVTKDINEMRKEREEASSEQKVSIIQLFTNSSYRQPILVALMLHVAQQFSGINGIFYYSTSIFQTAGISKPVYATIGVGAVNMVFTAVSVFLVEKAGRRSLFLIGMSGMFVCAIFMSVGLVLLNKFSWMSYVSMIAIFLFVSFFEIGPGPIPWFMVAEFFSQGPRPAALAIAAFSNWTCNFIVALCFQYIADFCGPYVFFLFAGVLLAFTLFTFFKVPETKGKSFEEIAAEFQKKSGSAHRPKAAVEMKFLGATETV
Description: […]-fructose entrance counter-flow in proteoliposomes. Particulars: 10 μM 14C-fructose outside, 200 mM fructose inside; pH 7.5; 1 min; labelled compound. Type of assay: biochemical.

The target of assay [3] is T3, GLUT1. Description: […]-glucose entrance counter-flow in proteoliposomes. The format is biochemical. Particulars: 10 μM 14C-glucose outside, 200 mM glucose inside; pH 7.5; 1 min; labelled compound.
The next assay deals with T5, GLUT3 (Homo sapiens, UniProt P11169).
T5 construct: gene SLC2A3; full length, N-terminal His6 tag, Sf21 insect cells, purified in DDM, reconstituted in proteoliposomes
T5 sequence (P11169 1-496): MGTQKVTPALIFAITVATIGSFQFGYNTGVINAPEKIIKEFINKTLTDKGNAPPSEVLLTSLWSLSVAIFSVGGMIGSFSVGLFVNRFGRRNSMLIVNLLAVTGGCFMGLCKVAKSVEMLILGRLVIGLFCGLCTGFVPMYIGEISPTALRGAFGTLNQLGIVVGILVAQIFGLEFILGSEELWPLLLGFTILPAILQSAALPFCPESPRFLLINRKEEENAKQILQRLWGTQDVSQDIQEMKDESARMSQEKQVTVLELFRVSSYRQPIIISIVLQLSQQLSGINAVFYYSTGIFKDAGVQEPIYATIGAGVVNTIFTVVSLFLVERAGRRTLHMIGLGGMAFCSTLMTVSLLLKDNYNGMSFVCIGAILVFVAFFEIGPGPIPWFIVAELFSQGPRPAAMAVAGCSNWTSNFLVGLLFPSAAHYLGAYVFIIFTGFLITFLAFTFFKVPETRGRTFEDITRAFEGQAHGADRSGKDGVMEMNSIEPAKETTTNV
Described as above. The format is biochemical. Particulars: 10 μM 14C-glucose outside, 200 mM glucose inside; pH 7.5; 1 min; labelled compound.

In the next assay the target is T6, GLUT4 (Homo sapiens, UniProt P14672).
T6 construct: gene SLC2A4; full length, N-terminal His6 tag, Sf21 insect cells, purified in DDM, reconstituted in proteoliposomes
T6 sequence (P14672 1-509): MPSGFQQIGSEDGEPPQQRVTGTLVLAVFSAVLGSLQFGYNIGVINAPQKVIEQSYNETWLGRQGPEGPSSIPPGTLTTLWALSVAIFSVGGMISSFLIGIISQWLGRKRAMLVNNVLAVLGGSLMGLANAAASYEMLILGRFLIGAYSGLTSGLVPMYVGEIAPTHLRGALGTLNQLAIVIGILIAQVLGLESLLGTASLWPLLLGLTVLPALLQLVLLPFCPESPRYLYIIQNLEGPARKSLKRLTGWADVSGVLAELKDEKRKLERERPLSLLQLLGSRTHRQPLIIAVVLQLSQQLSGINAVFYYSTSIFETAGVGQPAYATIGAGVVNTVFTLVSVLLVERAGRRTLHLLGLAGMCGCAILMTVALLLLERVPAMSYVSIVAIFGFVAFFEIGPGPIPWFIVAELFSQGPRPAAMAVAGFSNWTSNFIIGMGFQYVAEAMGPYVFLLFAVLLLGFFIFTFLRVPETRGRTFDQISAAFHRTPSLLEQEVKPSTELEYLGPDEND
The assay is described as above. The format is biochemical. Particulars: 10 μM 14C-glucose outside, 200 mM glucose inside; pH 7.5; 1 min; labelled compound.

In assay [4] the target is T4, GLUT2. Described as above. Type of assay: biochemical. Particulars: 10 μM 14C-glucose outside, 200 mM glucose inside; pH 7.5; 1 min; labelled compound.

The structures appear in SMILES notation. Like-named read-outs stand apart in the source and are kept apart here.

The Ki is a measure of affinity in units of concentration, obtained from inhibition or displacement. The inhibition is the percentage by which the read-out fell short of the control. `CS(=O)(=O)c1ccc(Nc2ccc3c(c2)OCO3)c([N+](=O)[O-])c1` [MSNBA, N-[4-(methylsulfonyl)-2-nitrophenyl]-1,3-benzodioxol-5-amine]: the Ki on native human GLUT5 worked out at 3.2 ± 0.4 µM. In addition, at GlcPSe, the inhibition at 2000 µM came to 75%.
For `C=C1[C@@H](C)[C@H]2[C@H](Cc3ccccc3)NC(=O)[C@]23OC(=O)/C=C/[C@H](O)CCC[C@@H](C)C/C=C/[C@H]3[C@@H]1O` [cytochalasin B], the “% inhibition at 2 mM” value on GLUT1 [1] (10 μM 14C-glucose outside, 200 mM glucose inside, pH 7.5, 1 min) is “Effect of common GLUT1 inhibitors on the relative transport activity of GLUT5, GLUT1 and GlcPSe”.
For `OCC1(O)OC[C@@H](O)[C@@H](O)[C@@H]1O` (stereo partly drawn) [fructose], at GLUT2 [2], the “14C-fructose entrance counter-flow in proteoliposomes” value is recorded as “fructose transport of GLUT2 were assayed by the entrance counter-flow method in proteoliposomes”.
Regarding `OC[C@H]1OC(O)[C@H](O)[C@@H](O)[C@@H]1O` (stereo partly drawn) [glucose], the “14C-glucose entrance counter-flow in proteoliposomes” value at GLUT1 [3] was “Glucose transport of GLUT1, GLUT2, GLUT3 and GLUT4”; at GLUT3, “Glucose transport of GLUT1, GLUT2, GLUT3 and GLUT4”; at GLUT4, “Glucose transport of GLUT1, GLUT2, GLUT3 and GLUT4”; at GLUT2 [4], “Glucose transport of GLUT1, GLUT2, GLUT3 and GLUT4”.
On to `O=C(CCc1ccc(O)cc1)c1c(O)cc(O)cc1O` [phloretin], for which, on GLUT1 [1], the “% inhibition at 2 mM” value was “Effect of common GLUT1 inhibitors on the relative transport activity of GLUT5, GLUT1 and GlcPSe”.

The values are drawn from publication PMC4831007, “Discovery of a specific inhibitor of human GLUT5 by virtual screening and in vitro transport evaluation” (Scientific Reports, 2016).
